Patent US11377442B2, “Small molecule agonists and antagonists of NR2F6 activity” (ZANDER THERAPEUTICS, INC., priority 2016, dated 2022)
Where two headings read alike, the source gives them in different places.

Biological target: T1, NR2F6 (Homo sapiens, UniProt P10588)
T1 construct: expressed in transfected cells; also transient transfection
T1 sequence (P10588 1-404): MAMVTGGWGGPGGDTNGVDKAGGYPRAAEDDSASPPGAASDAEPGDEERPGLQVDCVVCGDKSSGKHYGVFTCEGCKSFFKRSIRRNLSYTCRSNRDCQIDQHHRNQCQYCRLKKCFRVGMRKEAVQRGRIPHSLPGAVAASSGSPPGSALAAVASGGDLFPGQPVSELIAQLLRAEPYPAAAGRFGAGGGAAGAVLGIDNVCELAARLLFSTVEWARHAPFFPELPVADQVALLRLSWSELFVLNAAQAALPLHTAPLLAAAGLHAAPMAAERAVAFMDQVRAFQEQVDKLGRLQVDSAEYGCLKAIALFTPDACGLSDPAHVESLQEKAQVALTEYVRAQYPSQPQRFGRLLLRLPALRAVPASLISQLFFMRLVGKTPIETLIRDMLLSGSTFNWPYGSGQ
Assay: NR2F6 agonist screening, Firefly signal cmpd/DMSO
Type: cell-based
Parameters: Firefly NR2F6 full length, cmpd/DMSO (mean) / Firefly F4, cmpd/DMSO (mean): unit of the concentration uncertain
Details: for Firefly/Renilla (NR2F6 stable, clone F4): ratio Firefly/Renilla; for Firefly, NR2F6 stable (clone F4)/pGL4: ratio of Firefly in NR2F6 stable clone F4 to pGL4

[1] = C11 analogs follow set (Tables 2-10), repeat 1
[2] = C11 analogs follow set (Tables 2-10), repeat 2
[3] = Concentration 2 (unit uncertain)
[4] = Concentration 10 (unit uncertain)
[5] = Concentration 40 (unit uncertain)

CCOc1ccccc1NC(=O)c1ccc2oc(=O)c(S(=O)(=O)c3ccc(F)cc3)cc2c1 [Compound C181]
Firefly, cmpd/DMSO repeat 1 [1]: 10.4 | Firefly, cmpd/DMSO repeat 2 [2]: 13.5

COc1ccc(S(=O)(=O)c2cc3cc(F)cc(F)c3oc2=O)cc1 [Compound C289]
Firefly, cmpd/DMSO repeat 1 (Table 11, repeat 1): 31.3 | Firefly, cmpd/DMSO repeat 2 (Table 11, repeat 2): 15.6 | Firefly/Renilla (NR2F6 stable, clone F4) (Table 12): 2.0 | Firefly, NR2F6 stable (clone F4)/pGL4 (Table 12): 15.3 | Firefly, cmpd/DMSO repeat 1 (Table 12, repeat 1): 31.3 | Firefly, cmpd/DMSO repeat 2 (Table 12, repeat 2): 15.6

COc1cc(NC(=O)c2ccc3oc(=O)c(S(=O)(=O)c4ccc(C)cc4)cc3c2)cc(OC)c1 [Compound C131]
Firefly, cmpd/DMSO repeat 1 [1]: 9.5 | Firefly, cmpd/DMSO repeat 2 [2]: 15.3

CCOc1cccc2cc(S(=O)(=O)c3ccc(Cl)cc3)c(=O)oc12 [Compound C244]
Firefly, cmpd/DMSO repeat 1 (Table 9, repeat 1): 9.7 | Firefly, cmpd/DMSO repeat 2 (Table 9, repeat 2): 14.1

COc1ccc2cc(S(=O)(=O)c3ccccc3F)c(=O)oc2c1 [Compound C280]
Firefly, cmpd/DMSO repeat 1 [1]: 0.6 | Firefly, cmpd/DMSO repeat 2 [2]: 0.6

O=c1oc2ccc([N+](=O)[O-])cc2cc1S(=O)(=O)c1ccc(Cl)c(Cl)c1 [Compound C153]
Firefly, cmpd/DMSO repeat 1 [1]: 6.5 | Firefly, cmpd/DMSO repeat 2 [2]: 9.0

COC(=O)c1ccc2oc(=O)c(S(=O)(=O)c3ccc(Cl)cc3)cc2c1 [Compound C15]
Firefly, cmpd/DMSO repeat 1 [1]: 0.9 | Firefly, cmpd/DMSO repeat 2 [2]: 1.7

Cc1ccc(NC(=O)c2ccc3oc(=O)c(S(=O)(=O)c4ccc(F)cc4)cc3c2)cc1 [Compound C163]
Firefly, cmpd/DMSO repeat 1 [1]: 2.0 | Firefly, cmpd/DMSO repeat 2 [2]: 5.2

COc1cccc2cc(S(=O)(=O)c3cc(F)cc(F)c3)c(=O)oc12 [Compound C229]
Firefly, cmpd/DMSO repeat 1 (Table 9, repeat 1): 2.9 | Firefly, cmpd/DMSO repeat 2 (Table 9, repeat 2): 1.8

COc1cccc(S(=O)(=O)c2cc3cc(Cl)ccc3oc2=O)c1 [Compound C184]
Firefly, cmpd/DMSO repeat 1 [1]: 1.1 | Firefly, cmpd/DMSO repeat 2 [2]: 1.4

CCOc1cccc2cc(S(=O)(=O)c3ccc(F)c(C)c3)c(=O)oc12 [Compound C258]
Firefly, cmpd/DMSO repeat 1 (Table 9, repeat 1): 1.5 | Firefly, cmpd/DMSO repeat 2 (Table 9, repeat 2): 1.8

Cc1ccc(S(=O)(=O)c2cc3ccccc3oc2=O)cc1 [Compound C100]
Firefly, cmpd/DMSO repeat 1 [1]: 2.0 | Firefly, cmpd/DMSO repeat 2 [2]: 1.9

COc1ccc(OC)c(S(=O)(=O)c2cc3cccc(OC)c3oc2=O)c1 [Compound C249]
Firefly, cmpd/DMSO repeat 1 (Table 9, repeat 1): 1.4 | Firefly, cmpd/DMSO repeat 2 (Table 9, repeat 2): 1.5

O=c1oc2cc(O)ccc2cc1S(=O)(=O)c1ccccc1 [Compound C273]
Firefly, cmpd/DMSO repeat 1 [1]: 2.0 | Firefly, cmpd/DMSO repeat 2 [2]: 1.5

Cc1ccccc1NC(=O)c1ccc2oc(=O)c(S(=O)(=O)c3ccc(F)cc3)cc2c1 [Compound C160]
Firefly, cmpd/DMSO repeat 1 [1]: 22.9 | Firefly, cmpd/DMSO repeat 2 [2]: 20.2 | Firefly/Renilla (NR2F6 stable, clone F4) (Table 12): 2.4 | Firefly, NR2F6 stable (clone F4)/pGL4 (Table 12): 7.2 | Firefly, cmpd/DMSO repeat 1 (Table 12, repeat 1): 22.9 | Firefly, cmpd/DMSO repeat 2 (Table 12, repeat 2): 20.2

COc1ccc(NC(=O)c2ccc3nc(-c4ccccc4)cn3c2)c(OC)c1 [Compound P1]
Firefly, cmpd/DMSO (mean) (mean of repeats): 3.5 | Firefly, cmpd repeat 1 (raw signal, repeat 1): 236 | Firefly, cmpd repeat 2 (raw signal, repeat 2): 166 | Firefly, cmpd/DMSO repeat 1 (repeat 1): 4.0 | Firefly, cmpd/DMSO repeat 2 (repeat 2): 3.0 | activity (in words) (screening result): good activity

COc1ccc(S(=O)(=O)c2cc3ccccc3oc2=O)cc1 [Compound C101]
Firefly, cmpd/DMSO repeat 1 [1]: 4.5 | Firefly, cmpd/DMSO repeat 2 [2]: 4.7 | Firefly/Renilla (NR2F6 stable, clone F4) (Table 12): 2.4 | Firefly, NR2F6 stable (clone F4)/pGL4 (Table 12): 3.6 | Firefly, cmpd/DMSO repeat 1 (Table 12, repeat 1): 4.5 | Firefly, cmpd/DMSO repeat 2 (Table 12, repeat 2): 4.7

Cc1ccc(NC(=O)c2ccc3oc(=O)c(S(=O)(=O)c4ccc(C)cc4)cc3c2)cc1 [Compound C162]
Firefly, cmpd/DMSO repeat 1 [1]: 20.9 | Firefly, cmpd/DMSO repeat 2 [2]: 20.6

CCOc1cccc2cc(S(=O)(=O)c3cc(F)cc(F)c3)c(=O)oc12 [Compound C230]
Firefly, cmpd/DMSO repeat 1 (Table 9, repeat 1): 12.5 | Firefly, cmpd/DMSO repeat 2 (Table 9, repeat 2): 8.3 | Firefly/Renilla (NR2F6 stable, clone F4) (Table 12): 2.5 | Firefly, NR2F6 stable (clone F4)/pGL4 (Table 12): 6.5 | Firefly, cmpd/DMSO repeat 1 (Table 12, repeat 1): 12.5 | Firefly, cmpd/DMSO repeat 2 (Table 12, repeat 2): 8.3

CC(C)(C)c1ccc(S(=O)(=O)c2cc3cc([N+](=O)[O-])ccc3oc2=O)cc1 [Compound C139]
Firefly, cmpd/DMSO repeat 1 [1]: 6.6 | Firefly, cmpd/DMSO repeat 2 [2]: 6.4

CCOc1cccc2cc(S(=O)(=O)c3cccc(Cl)c3)c(=O)oc12 [Compound C256]
Firefly, cmpd/DMSO repeat 1 (Table 9, repeat 1): 11.5 | Firefly, cmpd/DMSO repeat 2 (Table 9, repeat 2): 7.9 | Firefly/Renilla (NR2F6 stable, clone F4) (Table 12): 2.3 | Firefly, NR2F6 stable (clone F4)/pGL4 (Table 12): 4.5 | Firefly, cmpd/DMSO repeat 1 (Table 12, repeat 1): 11.5 | Firefly, cmpd/DMSO repeat 2 (Table 12, repeat 2): 7.9

COc1cccc2cc(S(=O)(=O)c3ccccc3F)c(=O)oc12 [Compound C253]
Firefly, cmpd/DMSO repeat 1 (Table 9, repeat 1): 2.5 | Firefly, cmpd/DMSO repeat 2 (Table 9, repeat 2): 2.7

O=c1oc2c(F)cc(F)cc2cc1S(=O)(=O)c1ccccc1 [Compound C288]
Firefly, cmpd/DMSO repeat 1 (Table 11, repeat 1): 6.8 | Firefly, cmpd/DMSO repeat 2 (Table 11, repeat 2): 3.3

O=c1oc2ccccc2cc1S(=O)(=O)c1ccc(Cl)cc1 [Compound C105]
Firefly, cmpd/DMSO repeat 1 [1]: 5.7 | Firefly, cmpd/DMSO repeat 2 [2]: 4.8 | Firefly/Renilla (NR2F6 stable, clone F4) (Table 13): 2.6 | Firefly, NR2F6 stable (clone F4)/pGL4 (Table 13): 3.1 | Firefly, cmpd/DMSO repeat 1 (Table 13, repeat 1): 5.7 | Firefly, cmpd/DMSO repeat 2 (Table 13, repeat 2): 4.8

COc1cccc2cc(S(=O)(=O)c3ccc(C(C)(C)C)cc3)c(=O)oc12 [Compound C234]
Firefly, cmpd/DMSO repeat 1 (Table 9, repeat 1): 2.2 | Firefly, cmpd/DMSO repeat 2 (Table 9, repeat 2): 1.8

CCOc1cccc2cc(S(=O)(=O)c3ccccc3F)c(=O)oc12 [Compound C254]
Firefly, cmpd/DMSO repeat 1 (Table 9, repeat 1): 7.6 | Firefly, cmpd/DMSO repeat 2 (Table 9, repeat 2): 5.1 | Firefly/Renilla (NR2F6 stable, clone F4) (Table 12): 2.4 | Firefly, NR2F6 stable (clone F4)/pGL4 (Table 12): 4.4 | Firefly, cmpd/DMSO repeat 1 (Table 12, repeat 1): 7.6 | Firefly, cmpd/DMSO repeat 2 (Table 12, repeat 2): 5.1

CCN(CC)c1ccc2cc(S(=O)(=O)c3ccc(C)cc3)c(=O)oc2c1 [Compound C277]
Firefly, cmpd/DMSO repeat 1 [1]: 3.4 | Firefly, cmpd/DMSO repeat 2 [2]: 2.9

COc1ccc(S(=O)(=O)c2cc3cc(Br)ccc3oc2=O)cc1OC [Compound C154]
Firefly, cmpd/DMSO repeat 1 [1]: 35.4 | Firefly, cmpd/DMSO repeat 2 [2]: 35.4 | Firefly/Renilla (NR2F6 stable, clone F4) (Table 13): 1.6 | Firefly, NR2F6 stable (clone F4)/pGL4 (Table 13): 9.1 | Firefly, cmpd/DMSO repeat 1 (Table 13, repeat 1): 35.4 | Firefly, cmpd/DMSO repeat 2 (Table 13, repeat 2): 35.4

COc1ccc2oc(=O)c(S(=O)(=O)c3ccc(C(C)(C)C)cc3)cc2c1 [Compound C209]
Firefly, cmpd/DMSO repeat 1 [1]: 3.1 | Firefly, cmpd/DMSO repeat 2 [2]: 4.2 | Firefly/Renilla (NR2F6 stable, clone F4) (Table 13): 3.6 | Firefly, NR2F6 stable (clone F4)/pGL4 (Table 13): 3.1 | Firefly, cmpd/DMSO repeat 1 (Table 13, repeat 1): 3.1 | Firefly, cmpd/DMSO repeat 2 (Table 13, repeat 2): 4.2

COc1ccc(Cl)cc1S(=O)(=O)NCc1nc2nc(C)cc(C)n2n1 [Compound E15]
Firefly F4, cmpd/DMSO (mean) [3]: 1.3 | Firefly NR2F6 full length, cmpd/DMSO (mean) [3]: 1.2 | Firefly F4, cmpd/DMSO (mean) [4]: 1.1 | Firefly NR2F6 full length, cmpd/DMSO (mean) [4]: 0.8 | Firefly F4, cmpd/DMSO (mean) [5]: 0.8 | Firefly NR2F6 full length, cmpd/DMSO (mean) [5]: 1.1

O=c1oc2ccc(F)cc2cc1S(=O)(=O)c1ccc(Cl)cc1 [Compound C218]
Firefly, cmpd/DMSO repeat 1 [1]: 18.2 | Firefly, cmpd/DMSO repeat 2 [2]: 19.1 | Firefly/Renilla (NR2F6 stable, clone F4) (Table 12): 1.7 | Firefly, NR2F6 stable (clone F4)/pGL4 (Table 12): 9.5 | Firefly, cmpd/DMSO repeat 1 (Table 12, repeat 1): 18.2 | Firefly, cmpd/DMSO repeat 2 (Table 12, repeat 2): 19.1

COc1ccc(NC(=O)c2ccc3oc(=O)c(S(=O)(=O)c4ccc(Cl)cc4)cc3c2)cc1 [Compound C180]
Firefly, cmpd/DMSO repeat 1 [1]: 34.0 | Firefly, cmpd/DMSO repeat 2 [2]: 34.5 | Firefly/Renilla (NR2F6 stable, clone F4) (Table 13): 1.1 | Firefly, NR2F6 stable (clone F4)/pGL4 (Table 13): 13.1 | Firefly, cmpd/DMSO repeat 1 (Table 13, repeat 1): 34.0 | Firefly, cmpd/DMSO repeat 2 (Table 13, repeat 2): 34.5

COc1cc(NC(=O)c2ccc3oc(=O)c(S(=O)(=O)c4ccccc4)cc3c2)cc(OC)c1 [Compound C130]
Firefly, cmpd/DMSO repeat 1 [1]: 2.3 | Firefly, cmpd/DMSO repeat 2 [2]: 3.4

COc1cccc(NC(=O)c2ccc3oc(=O)c(S(=O)(=O)c4ccc(F)cc4)cc3c2)c1 [Compound C127]
Firefly, cmpd/DMSO repeat 1 [1]: 36.7 | Firefly, cmpd/DMSO repeat 2 [2]: 56.2 | Firefly/Renilla (NR2F6 stable, clone F4) (Table 13): 1.1 | Firefly, NR2F6 stable (clone F4)/pGL4 (Table 13): 5.7 | Firefly, cmpd/DMSO repeat 1 (Table 13, repeat 1): 36.7 | Firefly, cmpd/DMSO repeat 2 (Table 13, repeat 2): 56.2

Cc1cc(C)cc(S(=O)(=O)c2cc3cc(Cl)ccc3oc2=O)c1 [Compound C186]
Firefly, cmpd/DMSO repeat 1 [1]: 1.0 | Firefly, cmpd/DMSO repeat 2 [2]: 6.9

Cc1ccc(S(=O)(=O)c2cc3cc(C(=O)Nc4cc(C)cc(C)c4)ccc3oc2=O)cc1 [Compound C175]
Firefly, cmpd/DMSO repeat 1 [1]: 13.2 | Firefly, cmpd/DMSO repeat 2 [2]: 11.9 | Firefly/Renilla (NR2F6 stable, clone F4) (Table 13): 1.1 | Firefly, NR2F6 stable (clone F4)/pGL4 (Table 13): 5.7 | Firefly, cmpd/DMSO repeat 1 (Table 13, repeat 1): 13.2 | Firefly, cmpd/DMSO repeat 2 (Table 13, repeat 2): 11.9

COc1ccccc1-c1noc(Cn2ncc(C)cc2=O)n1 [Compound Z150]
Firefly, cmpd/DMSO (mean): 1.0

COc1ccc(NC(=O)c2ccc3oc(=O)c(S(=O)(=O)c4ccc(C)cc4)cc3c2)cc1OC [Compound C121]
Firefly, cmpd/DMSO repeat 1 [1]: 9.0 | Firefly, cmpd/DMSO repeat 2 [2]: 21.5

COc1ccccc1NC(=O)c1ccc2oc(=O)c(S(=O)(=O)c3ccccc3)cc2c1 [Compound C123]
Firefly, cmpd/DMSO repeat 1 [1]: 17.7 | Firefly, cmpd/DMSO repeat 2 [2]: 16.8
